This note sets out measurements from ChEMBL document CHEMBL1146785, “Synthesis and activity of phosphinic tripeptide inhibitors of cathepsin C” (Bioorg Med Chem Lett, 2004).

For the assay, the target named is T1, Dipeptidyl peptidase 1 (Mus musculus, UniProt P97821).
T1 sequence (P97821 whole entry): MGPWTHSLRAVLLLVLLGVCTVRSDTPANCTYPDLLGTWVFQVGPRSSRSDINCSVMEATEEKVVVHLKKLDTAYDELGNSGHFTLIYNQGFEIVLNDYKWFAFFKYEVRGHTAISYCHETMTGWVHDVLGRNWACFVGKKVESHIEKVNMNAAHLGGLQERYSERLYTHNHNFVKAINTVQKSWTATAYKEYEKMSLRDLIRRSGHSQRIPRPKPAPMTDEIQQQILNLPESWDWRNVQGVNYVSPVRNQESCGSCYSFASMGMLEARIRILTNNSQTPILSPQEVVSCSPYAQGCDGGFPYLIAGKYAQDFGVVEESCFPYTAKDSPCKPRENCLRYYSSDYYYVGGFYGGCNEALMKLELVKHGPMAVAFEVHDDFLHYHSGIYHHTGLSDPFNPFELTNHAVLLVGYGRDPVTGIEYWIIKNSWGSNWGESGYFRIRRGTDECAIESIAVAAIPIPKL
The experiment in a line: Compound was evaluated to inhibit cathepsin C (Dipeptidyl peptidase I) in non competitive binding assay.

The term Ki denotes a measure of affinity in units of concentration, obtained from inhibition or displacement.

Molecules are shown by their SMILES.

In the case of `NCC(=O)NC(CCc1ccccc1)P(=O)(O)CCC(=O)O` (stereo not drawn), the Ki was determined as 187 µM.
Consider `NCC(=O)NC(c1ccccc1)P(=O)(O)CCC(=O)O` (stereo not drawn), for which the Ki turned out to be 176 µM.
Regarding `COC(=O)CCP(=O)(O)C(CCc1ccccc1)NC(=O)CN` (stereo not drawn), affinity was put at a Ki of 312 µM.
The result for `NCC(=O)NC(Cc1ccccc1)P(=O)(O)CCC(=O)O` (stereo not drawn) reads 429 µM; that for `COC(=O)CCP(=O)(O)C(NC(=O)CN)c1ccccc1` (stereo not drawn), 188 µM.
Then `COC(=O)CCP(=O)(O)C(Cc1ccccc1)NC(=O)CN` (stereo not drawn), with 514 µM; and `CC(C)CC(NC(=O)CN)P(=O)(O)CCC(=O)O` (stereo not drawn), with 39 µM.
The result for `COC(=O)CCP(=O)(O)C(CC(C)C)NC(=O)CN` (stereo not drawn) reads 40 µM.
